# Data as given in patent publication US20090054328A1, “Reagents and Methods for Modulating Gene Expression Related to Hypertension” (The Board of Trustees of the University of Illinois, priority 2005, published 2009).
# What was measured:
# [1] = test system: medial smooth muscle layer of aortas and mesenteric arteries
# From the text: (§1) The importance of regulating MLCK expression by Ras signaling in vivo was further investigated by treating SHR with U0126 continuously for 3 weeks. U0126 is a specific inhibitor MEK (Favata et al., 1998J. Biol. Chem. 273: 18623-18632), an upstream regulator of ERK in the Ras signaling pathway (Chien & Hoshijima, 2002, Id.). Rats that were 8 weeks old at the start of treatment were studied because blood pressure increases and blood vessels become thicker between 8 and 12 weeks of age (Yamori, 1984, Id). In these experiments, Systolic blood pressure (SBP) was measured using tail-cuff sphygmomanometry (IITC Incorporated/Life Sciences Institute, Woodland Hills Calif.). Drugs were delivered via an osmotic pump (DURECT Corporation, Cupertino, Calif.) implanted subcutaneously in the shoulder. The pumps (having a 2 mL capacity at a delivery rate of 2.45 μL/hour) were filled with 13.5 mM U0126 (BIOMOL Research Laboratories, Plymouth Meeting, Pa.) dissolved in 50% DMSO or vehicle alone. Three weeks later, rats were sacrificed and aortas were removed. Some vessels were processed for histology, while other tissue was immediately placed in ice-cold acetone containing 10% trichloroacetic acid (TCA) and 10 mM dithiothreitol (DTT). Endothelial cells were removed by gently rubbing the inside of the vessels with a cell lifter and connective tissue was removed by dissection. The cleaned vessels were then frozen on dry ice and stored at −80° C. for biochemical analysis.
# Blood vessels were also assessed histologically. […] Cross-sections (5 microns thick) were cut, deparaffinized and stained with Gomort's Trichrome. Nuclei were visualized with Weigert's iron hematoxylin. The thickness of the medial layer was quantified using NIH ImageJ 1.32 software (National Institutes of Health, Bethesda, […].).
# [2] = test system: ERK-P, MLCK expression and MLC-P
# Description: Cells or pieces of blood vessels were extracted in buffer containing 9 M urea, 10 mM DTT and 20 mM Tris, pH 8.0. Protein concentrations were measured using the Bradford Protein Assay (BioRad, Richmond, Calif.) and equivalent amounts of protein were subjected to SDS-PAGE or urea-glycerol PAGE, Proteins separated by SDS-PAGE were transferred to nitrocellulose and probed with an antibody to MLCK (de Lanerolle et al., 1981, Proc. Natl. Acad. Sci. 78: 4738-4742), the broad specificity C4 antibody to actin (Lessard, 1988, Cell. Motil. Cytoskeleton. 10: 349-362), antibodies to Rho A or phosphorylated MPasel (Santa Cruz Biotechnology, Santa Cruz, Calif.) or an antibody to phosphorylated ERK½ (Cell Signaling Technology, Beverly, Mass.). Urea-glycerol PAGE was used to separate the unphosphorylated and phosphorylated forms of MLC20, which was then transferred to nitrocellulose and probed with an antibody to MLC20, wherein the stoichiometry of phosphorylation (mol PO4/mol MLC20) was calculated as previously described (Obara et al., 1989, Pflugers. Arch. 414: 134-138). Ail immunoreactive bands were visualized using enhanced chemiluminescence (Amersham Pharmacia Biotech, Piscataway, N.J.) and quantified densitometrically.
# as §1
# ERK-P, MLCK expression and MLC-P were assayed in U0126 SHR as described above.
# WKY rats = conditions: age-matched WKY rats, U0126 3 weeks; returned to baseline within 2 weeks of treatment
# From the text: as §1, with “The cleaned vessels were then frozen on dry ice and stored at −80° C. for biochemical analysis.” left out
# SHR = assay: Systolic blood pressure (tail-cuff) in SHR, drug given continuously for 3 weeks by osmotic pump; format: in vivo, rat; conditions: continuous 3 weeks
# Description: as §1, with “Rats that were 8 weeks old at the start of treatment were studied because blood pressure increases and blood vessels become thicker between 8 and 12 weeks of age (Yamori, 1984, Id).” left out
# Another experiment was conducted to determine if inhibiting Ras signaling could decrease blood pressure in SHR.
# MLCK expression in VSMC = assay: Blocking Ras signaling in vitro in VSMC: MLCK expression and MLC-P by Western blot; format: cell-based, rat
# Description: In view of the results obtained in Example 3 above, the effect of modulating SRF expression or activity on MLCK expression was assayed. To inhibit SRF activity, an adenovirus (AdSRF-S) lacking exons 4 and 5 was used to express a truncated, dominant negative form of SRF in cells (Davis et al., 2002, Id). Control cells were infected with a virus expressing GFP (AdGFP) at the same multiplicity of infection. In these experiments, VSMC were explanted from aortas of 4 to 7 weeks old SHR or WKY rats as previously described (Ross, 1971, J. Cell. Biol. 50: 172-186) and cultured in Dulbeccos's modified Eagles's medium (DMEM) with 10% fetal bovine serum (FBS). VSMC from WKY rats grown in 6-well plates (90-100% confluent) were infected for 2 hours with either an adenovirus that express a short form of SRF (AdSRF-S) (Davis et al., 2002, Id) or a control virus that expresses GFP (AdGFP). The viruses were washed out and the cells were grown as described above for 48 hours. VSMC were harvested and cell lysates were subjected to western blot analyses.
# Dominant negative Ras decreased MLCK mRNA expression in VSMC from SHR (FIG. 4C, inset). To investigate downstream events of Ras signaling, VSMC from SHR were treated with antisense oligonucleotides to ERK, a known member of the Ras signaling pathway. […]
# [3] = U0126-treated SHR compared to control
structure (smiles),measurement,setting,value
N#CC(=C(/N)Sc1ccccc1N)/C(C#N)=C(\N)Sc1ccccc1N [U0126],medial smooth muscle layer in aortas and mesenteric arteries,[1]; SHR receiving U0126 compared to controls,thinner
same,total medial area of aortas,"[1]; SHR, 3 weeks U0126, NIH ImageJ, vehicle 117.8±3.69",66.4±2.79 relative units
same,total medial area of mesenteric arteries,"[1]; SHR, 3 weeks U0126, mean from two animals, vehicle 26.88",16.0
same,RhoA expression in aortas,[2]; SHR after U0126 treatment,No significant differences
same,phosphorylated myosin phosphorylase-1 (MPasel-P) in aortas,[2]; SHR after U0126 treatment,No significant differences
same,ERK phosphorylation (ERK-P) in blood vessels,[2]; [3],decreased
same,MLC phosphorylation (MLC-P) in blood vessels,[2]; [3],decreased
same,MLCK expression in blood vessels,[2]; [3],decreased
same,SBP in normotensive WKY rats,WKY rats,transient decrease
same,systolic blood pressure at the end of the 3-week treatment period,"SHR; SHR 8 weeks old at start, 13.5 mM U0126 in osmotic pump, vehicle 208.9±4.7",150.4±4.1 mmHg
same,systolic blood pressure at the end of the 3-week treatment period,"SHR; SHR 16 weeks old at start, osmotic pump, vehicle 221.6",181.4±0.89 mmHg
same,MLCK expression in VSMC,MLCK expression in VSMC,decreased
